# Where two headings read alike, the source gives them in different places. Marks after values point to notes of the source that are not given here.
# Tests used:
# [1] = test system: arteriovenous shunt thrombus formation; assay: Arteriovenous shunt thrombosis model; type: in vivo, rat; settings: for Occluded/Total: n = 12, control 11/12; for Occlusion (%): control 92; for ED50: Rattus norvegicus, rats, single oral dose 90 min before creation of the arteriovenous shunt, read-out: ED50, incidence of occlusive shunt thrombi
# From the text: (§1) Immediately after a single oral administration of the test compound, SD rats were anesthetized by subcutaneous injection of 1.2 g/kg of urethane (n = 12). Ninety minutes after oral administration of a single dose of K-134 or cilostazol, one end of a polyethylene catheter (size 3, 24 cm; Hibiki, Tokyo, Japan) filled with physiological saline was inserted into the left jugular vein, with the other end of the catheter inserted into the right common carotid artery to create a loop. The end of the catheter was removed from the jugular vein 4 h after creation of the loop. A thrombus was then regarded to have been formed when blood no longer ran from the catheter. […] The serum concentrations of K-134 and cilostazol were determined by high-performance liquid chromatography (HPLC).
# PDE5 = test system: PDE5; set-up: method as in PMID 10644042; settings: read-out: IC50 toward PDE5; cited from earlier work
# [2] = test system: platelet aggregation ex vivo; set-up: method as in PMID 22269153; settings: rats, single administration 30 mg/kg; cited from earlier work
# [3] = test system: photothrombotic middle cerebral artery (MCA) occlusion; assay: Photothrombotic MCA occlusion time in rat stroke model; type: in vivo; settings: SD rats, n = 12, control 4.1±0.4 min
# Protocol: (§2) Brain infarction was produced by photothrombotic MCA occlusion essentially as reported previously. K-134 and cilostazol were administered to SD rats 2 h and 3 h before irradiation for MCA occlusion, respectively (n = 12), because K-134 reached plasma peak levels at 1–2 h, and cilostazol and its active metabolites (OPC-13015 and OPC-13213) reached at >3 h (Table S1) after oral administration in conscious male SD rats under fed conditions. Rats were anesthetized by intraperitoneal administration of 50 mg/kg of sodium pentobarbital (Kyoritsu Pharmaceutical Co., Ltd., Nara, Japan). Then, a polyethylene catheter for administration of rose bengal was placed in the left femoral vein. Rats were mounted on a brain stereotactic apparatus, and body temperature was maintained at 37°C with a heating pad. The left temporalis muscle was partially cut after incision of the scalp, and craniotomy was performed using a dental drill under an operating microscope. The fiber of a xenon lamp (Model L-4887; Hamamatsu Photonics Co., Ltd., Shizuoka, Japan) was placed on the MCA for irradiation (wavelength: 540 nm, 800000 lux), and the probe of the laser Doppler flow meter (ALF21R; Advance Co., Ltd., Tokyo, Japan) was placed on the MCA distal to the fiber. After 2 min of irradiation, rose bengal (25 mg/kg/mL; Sigma Aldrich Co., MO, USA) was injected for the next 2 min. The MCA was continuously irradiated for 8 min. Blood flow was measured for 18 min from the commencement of irradiation. The MCA occlusion time was determined from blood flow data. When blood flow continued beyond the observation period, the occlusion time was regarded as 16 min. After surgery, the incision site was closed with sutures, and rats were returned to their cages.
# PDE3A = test system: PDE3A; set-up: method as in PMID 10644042; settings: read-out: IC50 toward PDE3A; cited from earlier work
# [4] = test system: photothrombotic cerebral infarction model; assay: Infarct volume 24 h after photothrombotic MCA occlusion; type: in vivo, rat; settings: for infarct volume: 24 h after MCA occlusion, control 131.4±18.9 mm^3; for bleeding in the cerebrum observed macroscopically: rats treated with K-134 and cilostazol in photothrombotic stroke model
# Protocol: as §2
# Twenty-four hours after MCA occlusion, rats were sacrificed by an overdose of pentobarbital and cutting an abdominal vein. The brain was immediately removed, cooled with cold spray (Pip Co., Ltd., Osaka, Japan), and cut into six slices (2 mm thick) using a slicer (RBSC-02; Neuro Science Inc., Tokyo, Japan) and razor (FA-10; Feather Razor, Co., Ltd., Osaka, Japan). The cutting base point (0 mm) was set at the position of bregma, and brains were cut at −2, −4, 0, +2, +4, +6, +8 mm from the base point. The brain slices were stained with 1% (w/v) 2,3,5-triphenyl-2H-tetrazolium chloride (TTC; Tokyo Chemical Industry Co., Ltd., Tokyo, Japan) in saline solution at 37°C for 20 min. The stained slices were photographed with a digital camera (CAMEDIA E-10; Olympus Co., Ltd., Tokyo, Japan). Whole brain areas and infarcted areas were quantified by image analysis (Win ROOF; Mitani Co., Ltd., Tokyo, Japan), and infarct volume were calculated with the trapezoidal rule.
# [5] = Plasma concentration in rat arteriovenous shunt model; type: in vivo; settings: SD, n = 6
# From the text: as §1
# PDE4 = test system: PDE4; set-up: method as in PMID 10644042; settings: read-out: IC50 toward PDE4; cited from earlier work
# [6] = Electron spin resonance (ESR) radical scavenging; settings: ESR experiments, data not shown
# From the text: In the photothrombotic cerebral infarction model, photoactivation of rose bengal by illumination with green light results in reactive oxygen intermediates (predominantly singlet oxygen and superoxide). […] Therefore, we concluded that the observed inhibitory effects of K-134 on photothrombosis in this model are relevant to its antiplatelet activity but not radical scavenging activity.
# PDE3B = test system: PDE3B; set-up: method as in PMID 10644042; settings: read-out: IC50 toward PDE3B; cited from earlier work
# rat platelet aggregation = assay: Rat platelet aggregation in vitro (PRP, aggregometer); type: cell-based
# Protocol: Platelet-rich plasma (PRP) was prepared by centrifugation (900 rpm, 15 min, at room temperature) of blood (05PR-22 centrifuge with a 03 rotor; Hitachi, Ltd., Tokyo, Japan), and the platelet count was adjusted to 5×10^5/µL with platelet-poor plasma prepared by centrifugation (3000 rpm, 10 min, at room temperature). PRP was incubated with antiplatelet agents at 37°C for 3 min and stimulated with collagen (final concentration, 15 µg/mL; MC Medical Inc., Tokyo, Japan) or adenosine diphosphate (ADP) (final concentration, 7.5 µM; MC Medical Inc.) (n = 5). Platelet aggregation was quantified by measuring the area under the curve (AUC) during the 5-min period after addition of trigger using a light transmittance aggregometer (PAM-8C; Mebanix Co., Ltd., Tokyo, Japan).
# PDE2 = test system: PDE2; set-up: method as in PMID 10644042; settings: read-out: IC50 toward PDE2; cited from earlier work
# [7] = ADP 7.5 µM, n = 5, read-out: IC50, rat platelet aggregation induced by ADP
# [8] = collagen 15 µg/mL, n = 5, read-out: IC50, rat platelet aggregation induced by collagen
structure (smiles),measurement,setting,value
O=C(NCCCOc1ccc2[nH]c(=O)ccc2c1)N(C1CC1)[C@@H]1CCCC[C@H]1O [K-134],Inhibition (%) of arteriovenous shunt thrombus formation,[1]; 3 mg/kg single oral dose,18%
same,Occluded/Total,[1]; 3 mg/kg single oral dose,9/12
same,Occlusion (%),[1]; 3 mg/kg single oral dose,75%
same,Inhibition (%) of arteriovenous shunt thrombus formation,[1]; 10 mg/kg single oral dose,64%
same,Occluded/Total,[1]; 10 mg/kg single oral dose,4/12*
same,Occlusion (%),[1]; 10 mg/kg single oral dose,33%
same,Inhibition (%) of arteriovenous shunt thrombus formation,[1]; 30 mg/kg single oral dose,64%
same,Occluded/Total,[1]; 30 mg/kg single oral dose,4/12*
same,Occlusion (%),[1]; 30 mg/kg single oral dose,33%
same,ED50,[1],11 mg/kg
same,IC50,PDE5,12.1 µM
same,inhibition of ADP-induced platelet aggregation ex vivo,[2],about 55%
same,inhibition of collagen-induced platelet aggregation ex vivo,[2],~79%
same,MCA occlusion time,"[3]; 10 mg/kg oral preadministration, mean ± SEM",7.9 ± 1.1 min
same,MCA occlusion time,"[3]; 30 mg/kg oral preadministration, mean ± SEM",9.1 ± 1.6 min
same,IC50,PDE3A,100 nM
same,infarct volume,"[4]; 10 mg/kg oral, not significant",92.0±14.7 mm^3
same,infarct volume,"[4]; 30 mg/kg oral, significant",62.1±12.9 mm^3
same,bleeding in the cerebrum observed macroscopically,[4],No bleeding
same,Cmax,[5]; 10 mg/kg oral,430 ± 80 nM
same,IC50,PDE4,> 300 µM
same,scavenging activities against singlet oxygen and superoxide anion radical,[6],did not show scavenging activities
same,IC50,PDE3B,280 nM
same,IC50,rat platelet aggregation; [7],3.2 µM
same,IC50,rat platelet aggregation; [8],2.5 µM
same,IC50,PDE2,> 300 µM
O=C1CCc2cc(OCCCCc3nnnn3C3CCCCC3)ccc2N1 [cilostazol],Inhibition (%) of arteriovenous shunt thrombus formation,[1]; 10 mg/kg single oral dose,37%
same,Occluded/Total,[1]; 10 mg/kg single oral dose,7/12
same,Occlusion (%),[1]; 10 mg/kg single oral dose,58%
same,Inhibition (%) of arteriovenous shunt thrombus formation,[1]; 30 mg/kg single oral dose,64%
same,Occluded/Total,[1]; 30 mg/kg single oral dose,4/12*
same,Occlusion (%),[1]; 30 mg/kg single oral dose,33%
same,Inhibition (%) of arteriovenous shunt thrombus formation,[1]; 100 mg/kg single oral dose,73%
same,Occluded/Total,[1]; 100 mg/kg single oral dose,3/12**
same,Occlusion (%),[1]; 100 mg/kg single oral dose,25%
same,ED50,[1],18 mg/kg
same,IC50,PDE5,4.4 µM
same,MCA occlusion time,"[3]; 300 mg/kg oral preadministration, not statistically significant",6.9 ± 1.3 min
same,IC50,PDE3A,200 nM
same,infarct volume,"[4]; 300 mg/kg oral, not significant",95.8±14.8 mm^3
same,bleeding in the cerebrum observed macroscopically,[4],No bleeding
same,Cmax,[5]; 30 mg/kg oral,2080 ± 280 nM
same,IC50,PDE4,88 µM
same,scavenging activities against singlet oxygen and superoxide anion radical,[6],did not show scavenging activities
same,IC50,PDE3B,380 nM
same,IC50,rat platelet aggregation; [7],83 µM
same,IC50,rat platelet aggregation; [8],42 µM
same,IC50,PDE2,45.2 µM

# Reference: article PMC3479105, “K-134, a Phosphodiesterase 3 Inhibitor, Prevents Brain Damage by Inhibiting Thrombus Formation in a Rat Cerebral Infarction Model” (PLoS ONE, 2012)
